Test results from US6376546B1, “Biphenyl-5-alkanoic acid derivatives and use thereof” (Asahi Kasei Kabushiki Kaisha, priority 1997, dated 2002).

Experiments:
[1] = tested on: anti-OVA-IgE antibody production; assay: Suppressive effect on mouse in vivo anti-OVA-IgE antibody production; details: po, 336 h, BALB/c mice immunized with OVA on aluminium hydroxide gel, 100 mg/kg orally once a day for 5 days, serum on day 14, PCA reaction in Wistar rats, read-out: Suppressive rate for IgE antibody production (%)
Procedure: BALB/c mice, female, 7 weeks old, 7 mice in a group, and 9-11 mice in control group, were used for tests.
Suppressive effect of the compound of the present invention on IgE antibody production was evaluated according to a method described in the reference, Levin and Vaz, International Archives of Allergy and Applied Immunology, 39: 156, 1970. Immunization was performed by intraperitoneally administering aluminium hydroxide gel (4 mg, PIERCE Inc.) adsorbed with egg albumin (OVA; Sigma Inc.) 10 μg in mice. Test compounds were suspended or dissolved in water containing 0.5% carboxymethyl cellulose, and administered orally to test animals, 100 mg/kg, immediately after immunization, once a day for 5 days. Water containing 0.5% carboxymethyl cellulose without addition of test compound was administered to the control group.
On day 14 after the immunization, blood was collected, and passive cutaneous anaphylaxis (PCA) reaction was performed according to the method described in the reference, Ovary et al. International Archives of Allergy and Applied Immunology, 48: 16, 1975, to determine the antibody production. Serum 0.1 ml, which was serially twofold diluted with physiological saline, was injected intracutaneously in the back of Wistar rats, male, 8 weeks old. After 24 hours, 0.5% Evans blue physiological saline solution, which contains OVA 2 mg, 1 ml was injected intravenously to determine the serum boundary concentration of pigment infiltration.
Suppressive rate for IgE antibody production is determined by the following equation.
Suppressive rate for IgE antibody production (%) [formula]

[2] = tested on: immediate type allergic foot-pad reaction; assay: Suppression of mouse in vivo foot-pad reaction; details: BALB/c mice immunized by egg albumin; oral 3-100 mg/kg once a day for 5 days; compared with the positive control
Procedure: BALB/c mice, female, 7 weeks old, 5 mice in a group for test group and 12-14 mice for control group were used for tests.
Effect of the compounds of the present invention on suppression of mouse in vivo foot-pad reaction is evaluated by the following method.
Mice were immunized by administering intraperitoneally 4 mg of aluminium hydroxide gel, which was adsorbed with OVA 5 μg. Test compounds were suspended or dissolved in water containing 0.5% carboxymethyl cellulose, and were administered to test animals orally at 3-100 mg/kg, once a day, for 5 days, from immediately after immunization. For control groups, water containing 0.5% carboxymethyl cellulose without addition of the test compound was administered.
After 10 days of immunization, OVA 10 μg was injected into the hindlim pads of mice to induce immediate type allergic foot-pad reaction. Control groups were divided into tow groups. The one was injected OVA to induce allergic foot-pad reaction for positive control, and the other was injected physiological saline for negative control. After 30 minutes, foot-pad volume of hidlimb of mice was measured by using Plethysmometer (Unicom Co.) to determine increased rate for comparison before induction of foot-pad reaction.
Suppressive rate for foot-pad reaction is obtained by the following equation.
Suppressive rate for foot-pad reaction (%) [formula]
A: increased rate of foot-pad reaction in positive control group,
B: increased rate of foot-pad reaction in negative control group,
C: increased rate of foot-pad reaction in test group (test compound administered group).

SMILES | inhibition in vivo at 100 mg/kg [1] | suppressive action against immediate type allergic foot-pad reaction [2]
CCCCOc1ccc(CCC(=O)O)cc1-c1ccccc1 [Compound(01), 3-(2-butoxy-1,1′-biphenyl-5-yl)propionic acid] | 72.3% | 
CCCCCOc1ccc(CCC(=O)O)cc1-c1ccccc1 [Compound(03), 3-(2-pentyloxy-1,1′-biphenyl-5-yl)propionic Acid] | 50.9% | 
O=C(O)CCc1ccc(OC2CCCC2)c(-c2ccccc2)c1 [Compound(04), 3-(2-cyclopentyloxy-1,1′-biphenyl-5-yl)propionic Acid] | 45.5% | significant suppressive action
O=C(O)CCc1ccc(OCC2CCCCC2)c(-c2ccccc2)c1 [Compound(07), 3-(2-cyclohexylmethyloxy-1,1′-biphenyl-5-yl)propionic Acid] | 62% | significant suppressive action
CCC(O)COc1ccc(CCC(=O)O)cc1-c1ccccc1 (centres unmarked) [Compound(08), 3-[2-(2-hydroxybutyloxy)-1,1′-biphenyl-5-yl]propionic acid] | 58.9% | 
O=C(O)CCc1ccc(OCC(=O)O)c(-c2ccccc2)c1 [Compound(12), 3-(2-carboxymethyloxy-1,1′-biphenyl-5-yl)propionic acid] | 50.8% | 
CCCCOc1c(NC(C)=O)cc(CCC(=O)O)cc1-c1ccccc1 [Compound(15), 3-(3-acetylamino-2-butoxy-1,1′-biphenyl-5-yl)propionic Acid] | 64.2% | 
NC(=O)Nc1cc(CCC(=O)O)cc(-c2ccccc2)c1OCC1CCCCC1 [Compound(22), 3-(3-carbamoylamino-2-cyclohexylmethyloxy-1,1′-biphenyl-5-yl)propionic Acid] | 48.1% | significant suppressive action
O=C(O)CCc1ccc(OCC2CCCCC2)c(-c2ccc(O)cc2)c1 [Compound(25), 3-(2-cyclohexylmethyloxy-4′-hydroxy-1,1′-biphenyl-5-yl)propionic Acid] | 45.5% | significant suppressive action
CCCCOc1ccc(CCCC(=O)O)cc1-c1ccccc1 [Compound(28), 4-(2-butoxy-1,1′-biphenyl-5-yl)butyric Acid] | 44.5% | significant suppressive action
CC(C)COc1ccc(CCCC(=O)O)cc1-c1ccccc1 [Compound(29), 4-(2-isobutoxy-1,1′-biphenyl-5-yl)butyric Acid] | 55.7% | 
CCCCCOc1ccc(CCCC(=O)O)cc1-c1ccccc1 [Compound(31), 4-(2-pentyloxy-1,1′-biphenyl-5-yl)butyric Acid] | 49.8% | 
O=C(O)CCCc1ccc(OCC(=O)O)c(-c2ccccc2)c1 [Compound(44), 4-(2-carboxymethyloxy-1,1′-biphenyl-5-yl)butyric Acid] | 71.5% | significant suppressive action
O=C(O)CCCc1ccc(OCCC(=O)O)c(-c2ccccc2)c1 [Compound(45), 4-[2-(2-carboxyethyloxy)-1,1′-biphenyl-5-yl]butyric Acid] | 57% | 
O=C(O)CCCOc1ccc(CCCC(=O)O)cc1-c1ccccc1 [Compound(46), 4-[2-(3-carboxypropyloxy)-1,1′-biphenyl-5-yl]butyric Acid] | 64.6% | 
NC(=O)COc1ccc(CCCC(=O)O)cc1-c1ccccc1 [Compound(47), 4-(2-carbamoylmethyloxy-1,1′-biphenyl-5-yl)butyric Acid] | 65.7% | significant suppressive action
CCCCOc1c(NC(C)=O)cc(CCCC(=O)O)cc1-c1ccccc1 [Compound(52), 4-(3-acetylamino-2-butoxy-1,1′-biphenyl-5-yl)butyric Acid] | 64.2% | 
CCCCOc1ccc(CCCC(N)=O)cc1-c1ccccc1 [Compound(55), 4-(2-butoxy-1,1′-biphenyl-5-yl)butyramide] | 55.7% | significant suppressive action
COc1ccc(CCC(=O)O)cc1-c1ccccc1 [Control(1), 3-(2-methoxy-1,1′-biphenyl-5-yl)propionic acid, reference compound] | -14.4% | 
C=CCOc1ccc(-c2cc(CCC(=O)OC)ccc2OCc2ccccc2)cc1 [Control(2), Methyl 3-(4′-allyloxy-2-benzyloxy-1,1′-biphenyl-5-yl)propionate, reference compound] | -11.6% | 
CC1(C)CCC(C)(C)c2cc(COc3ccc(C(=O)O)cc3-c3ccccc3)ccc21 [Control(3), [2-(5,6,7,8-tetrahydro-5,5,8,8-tetramethyl-2-naphthalenyl)methyloxy-1,1′-biphenyl-5-yl]carboxylic acid, reference compound] | -2.8% | 
CC1(C)CCC(C)(C)c2cc(COc3cccc(CCC(=O)O)c3-c3cccc(C(=O)O)c3)ccc21 [Control(4), 3-[3′-carboxy-2-(5,6,7,8-tetrahydro-5,5,8,8-tetramethyl-2-naphthalenyl)methyloxy-1,1′-biphenyl-6-yl]propionic acid, reference compound] | -8.4% | 
CCCCOc1ccc(CCCC(=O)NCC)cc1-c1ccccc1 [Control(5), N-ethyl-4-(2-butoxy-1,1′-biphenyl-5-yl)butyramide, reference compound] | -2.5% | 
CCCCOc1ccc(-c2ccccc2)cc1CCCC(=O)O [Control(6), 4-(4-butoxy-1,1′-biphenyl-3-yl)butyric acid, reference compound] | 7.3% | 
